The values that follow come from ChEMBL document CHEMBL5729557, “5-membered heteroaryl carboxamide compounds for treatment of HBV” (2023).

By EC50 is commonly meant the concentration giving half of the maximal effect.

Where only a bound is given, the exact number is not on record here.

The first test is described as follows: Assay Measuring Activity of Test Compounds on Viral Production from HepAD38 Cells: HepAD38 cells grown in a T-150 flask (Corning, cat #: 430825) with Growth Medium (DMEM/F12 (1:1) (Hyclone, cat #: SH30023.02), 1× Pen/Strep (Invitrogen, cat #: 15140-122), 10% FBS (Tissue Culture Biologics, cat #: 101), 250 μg/mL G418 (Alfa Aesar, cat #: J62671), 1 μg/mL Tetracycline (Teknova, cat #: T3320)) were detached with 0.25% trypsin-EDTA to (Invitrogen, cat #: 25200-056). Tetracycline-free treatment medium (15 mL DMEM/F12 (1:1) 1× Pen/step, with 2% FBS, Tet-system approved (Clontech, cat #: 631106) were then added to mix, transferred into a 50 ml conical tube (Falcon, cat #: 21008-918,) and spun at 1300 rpm for 5 min. Pelleted cells were then re-suspended/washed with 50 mL of 1×DPBS (Invitrogen, cat #: 14190-136) 2 times and 50 mL treatment medium twice. HepAD38 cells were then re-suspended with 10 mL of treatment medium, syringed and counted. Wells of 96-well clear bottom TC plate (Corning, cat #: 3904,) were seeded at 50,000 cells/well in 180 μL of treatment medium, and 20 μL of either 10% DMSO (Sigma, cat #: D4540) as controls or a 10× solution of test compounds in 10% DMSO in treatment media was added for a final compound concentration starting at 10 μM, and plates were incubated in 5% CO2 incubator at 37° C. for 5 days.Subsequently viral load production was assayed by quantitative PCR (qPCR) of the HBV core sequence. PCR reaction mixture containing forward primers HBV-f 5′-CTGTGCCTTGGGTGGCTTT-3′ (IDT DNA), Reverse primers HBV-r 5′-[…]-3′ (IDT DNA), Fluorescent TaqMan™ Probes HBV-probe 5′-FAM/AGCTCCAAA/ZEN/[…]/3IABkFQ-3′ (IDT DNA), 10 μL/well of PerfeCTa® qPCR ToughMix® (Quanta Biosciences, Cat #: 95114-05K), and 6 μL/well of DEPC water (Alfa Aesar, cat #: J62087) was prepared. […] of supernatant was added to 16 μL of the reaction mixture in a qPCR plate (Applied Biosytems, Cat #: 4309849), sealed with a film (Applied Biosystems, Cat #: 4311971), centrifuged for a few seconds, and subsequently run on an Applied Biosystems VIIA7. The PCR mixture was incubated at 45° C. for 5 min, then 95° C. for 10 min, followed by 40 cycles of 10 seconds at 95° C. and 20 seconds at 60° C. Viral load was quantified against known HBV DNA standards by using ViiA™ 7 Software. Viral load in the supernatant from wells with treated cells were compared against viral load in supernatant from DMSO control wells (>3 per plate). Cell viability assay was performed with CellTiter-Glo Luminescent Cell Viability Assay (Promega, cat #: G7573) with modification. Mixed appropriate amount of CellTiter-Glo (CTG) 1×DPBS in a 1:1 ratio, added 100 uL of the mixture to each well followed completely removal of all supernatant in each well without touching cell surface. Incubated the plate at room temperature for 10 min on an orbital shaker, and then read the plate with a plate reader (TECAN M1000 or Envision).
Conditions: not given
On the technique in general: Real-time PCR tracks product formation cycle by cycle.
Take `Cn1nc(C2CC3COC(=O)CC3C2)c(C(=O)Nc2ccc(F)c(Cl)c2)c1N` (stereo not given): the EC50 is below 100 nM.

The same test, now with this note: HePAD38.
In the case of `Cn1cc([C@@H]2CC[C@H](c3nn(C)c(N)c3C(=O)Nc3ccc(F)c(Cl)c3)C2)cn1`, the 50% effective concentration (EC50) is below 100 nM.
Still for that read-out and setting: the result for `COCCOc1ccc(C2CCC(c3nn(C)c(N)c3C(=O)Nc3ccc(F)c(Cl)c3)C2)cc1` (stereo not given) reads below 100 nM; that for `Cn1nc([C@H]2C[C@@H](c3ccccc3)C2)c(C(=O)Nc2ccc(F)c(Cl)c2)c1N`, below 100 nM; that for `Cn1nc([C@@H]2CC3COC(=O)C[C@H]3C2)c(C(=O)Nc2ccc(F)c(Cl)c2)c1N` (stereo not given in full), “in the range around 300 nM”.
Still for that read-out and setting: the result for `CC(C)N1CC2CC(c3nn(C)c(N)c3C(=O)Nc3ccc(F)c(Cl)c3)CC2C1` (stereo not given) reads “in the range around 5250 nM”; that for `Cn1nc([C@@H]2CC3CC(O)(CSC(C)(C)C)C[C@H]3C2)c(C(=O)Nc2ccc(F)c(Cl)c2)c1N` (stereo not given in full), below 100 nM; that for `Cn1nc([C@@H]2CC3CC(O)(C[S+]([O-])CC(F)(F)F)C[C@@H]3C2)c(C(=O)Nc2ccc(F)c(Cl)c2)c1N` (stereo not given in full), below 100 nM.
Still for that read-out and setting: the result for `Cn1nc([C@@H]2CC3CC(O)(CSCCN4CCOCC4)C[C@H]3C2)c(C(=O)Nc2ccc(F)c(Cl)c2)c1N` (stereo not given in full) reads below 100 nM.
In the case of `Cn1cc([C@@H]2CC[C@@H](c3nn(C)c(N)c3C(=O)Nc3ccc(F)c(Cl)c3)C2)cn1`, the EC50 result is “in the range around 300 nM”.
The same measure, in the same setting: the result for `CCS(=O)(=O)CC1(O)CC2C[C@@H](c3nn(C)c(N)c3C(=O)Nc3ccc(F)c(Cl)c3)C[C@H]2C1` (stereo not given in full) reads below 100 nM; that for `COc1cc(-c2cnn(C)c2)ccc1C1CCC(c2nn(C)c(N)c2C(=O)Nc2ccc(F)c(Cl)c2)C1` (stereo not given), “in the range around 300 nM”; that for `Nc1[nH]nc(C2CC3CC(=O)CC3C2)c1C(=O)Nc1ccc(F)c(Cl)c1` (stereo not given), “in the range around 300 nM”.
Still for that read-out and setting: the result for `Cn1nc(C2CC3CC(CCO)CC3C2)c(C(=O)Nc2ccc(F)c(Cl)c2)c1N` (stereo not given) reads below 100 nM; that for `Cn1nc(C2CCC(c3ccccc3)C2)c(C(=O)Nc2cc(F)c(F)c(Br)c2)c1N` (stereo not given), “in the range around 300 nM”.
On the same count and under the same terms, the result for `Cn1nc(C2CC3CNC(=O)CC3C2)c(C(=O)Nc2ccc(F)c(Cl)c2)c1N` (stereo not given) reads below 100 nM; that for `Cn1nc([C@H]2CC3CC(O)(C[S+]([O-])CC(F)(F)F)C[C@@H]3C2)c(C(=O)Nc2ccc(F)c(Cl)c2)c1N` (stereo not given in full), below 100 nM; that for `Cn1nc(C2CCC(c3ccc(F)cc3)C2)c(C(=O)Nc2ccc(F)c(Cl)c2)c1N` (stereo not given), below 100 nM.
Regarding `CN(C)S(=O)(=O)CC1(O)CC2CC(c3nn(C)c(N)c3C(=O)Nc3ccc(F)c(Cl)c3)CC2C1` (stereo not given), the EC50 is below 100 nM.
Still for that read-out and setting: the result for `Cn1nc([C@@H]2CC3CC(=NO)C[C@@H]3C2)c(C(=O)Nc2ccc(F)c(Cl)c2)c1N` (stereo not given in full) reads below 100 nM; that for `Cn1nc(C2CC3CNCC3C2)c(C(=O)Nc2ccc(F)c(Cl)c2)c1N` (stereo not given), “in the range around 5250 nM”.
The same measure, in the same setting: the result for `Cn1nc([C@@H]2CC3CC(O)(CS(C)(=O)=O)C[C@H]3C2)c(C(=O)Nc2ccc(F)c(Cl)c2)c1N` (stereo not given in full) reads below 100 nM; that for `COC(=O)N1CC2CC(c3nn(C)c(N)c3C(=O)Nc3ccc(F)c(Cl)c3)CC2C1` (stereo not given), below 100 nM.
Turning to `Cn1nc([C@@H]2CC3CC(O)(CSCC(F)(F)F)C[C@H]3C2)c(C(=O)Nc2ccc(F)c(Cl)c2)c1N` (stereo not given in full), the EC50 is below 100 nM.
Still for that read-out and setting: the result for `Cn1nc([C@@H]2CC3C[S+]([O-])C[C@@H]3C2)c(C(=O)Nc2ccc(F)c(Cl)c2)c1N` (stereo not given in full) reads “in the range around 5250 nM”; that for `CS(=O)(=O)CC1(O)CC2CC(c3n[nH]c(N)c3C(=O)Nc3ccc(F)c(Cl)c3)CC2C1` (stereo not given), below 100 nM.
The same measure, in the same setting: the result for `Cn1nc([C@H]2CC3CC(O)(C[S+]([O-])CC(F)(F)F)C[C@H]3C2)c(C(=O)Nc2ccc(F)c(Cl)c2)c1N` (stereo not given in full) reads below 100 nM; that for `Cn1nc(C2CC3CC(N4CCCS4(=O)=O)CC3C2)c(C(=O)Nc2ccc(F)c(Cl)c2)c1N` (stereo not given), below 100 nM.
Still for that read-out and setting: the result for `CCS(=O)(=O)C1CC2CC(c3nn(C)c(N)c3C(=O)Nc3ccc(F)c(Cl)c3)CC2C1` (stereo not given) reads below 100 nM; that for `Cn1nc([C@@H]2CC[C@@H](c3ccccc3)C2)c(C(=O)Nc2ccc(F)c(Cl)c2)c1N`, below 100 nM; that for `CNC(=O)C1CC2CC(c3nn(C)c(N)c3C(=O)Nc3ccc(F)c(Cl)c3)CC2C1` (stereo not given), below 100 nM.
Take `Cn1nc(C2CC3CC(O)(COCC(F)(F)F)CC3C2)c(C(=O)Nc2ccc(F)c(Cl)c2)c1N` (stereo not given): the EC50 is below 100 nM.
The same measure, in the same setting: the result for `Cn1nc(C2CCC(c3cccnc3)C2)c(C(=O)Nc2ccc(F)c(Cl)c2)c1N` (stereo not given) reads below 100 nM; that for `Cn1nc(C2CC3CC(N4CCOC4=O)CC3C2)c(C(=O)Nc2ccc(F)c(Cl)c2)c1N` (stereo not given), below 100 nM.
As for `Cn1nc(C2CC3CC(C)(O)CC3C2)c(C(=O)Nc2ccc(F)c(Cl)c2)c1N` (stereo not given), the EC50 is below 100 nM.
Still for that read-out and setting: the result for `Cn1nc([C@@H]2CC3CC(O)(CN4CCOCC4)C[C@@H]3C2)c(C(=O)Nc2ccc(F)c(Cl)c2)c1N` (stereo not given in full) reads “in the range around 5250 nM”.
Still for that read-out and setting: the result for `Cn1nc(C2CC3COC(=O)CC3C2)c(C(=O)Nc2ccc(F)c(Cl)c2)c1N` (stereo not given) reads below 100 nM.
Still for that read-out and setting: the result for `Cn1nc(C2CC3CC(NS(=O)(=O)C(F)(F)F)CC3C2)c(C(=O)Nc2ccc(F)c(Cl)c2)c1N` (stereo not given) reads below 100 nM.
Turning to `COc1cc(-c2ncc[nH]2)ccc1[C@@H]1CC[C@@H](c2nn(C)c(N)c2C(=O)Nc2ccc(F)c(Cl)c2)C1`, the concentration for a half-maximal effect (EC50) was below 100 nM.
Same read-out and setting: the result for `Cn1cc(-c2ccc([C@H]3CC[C@@H](c4nn(C)c(N)c4C(=O)Nc4ccc(F)c(Cl)c4)C3)cc2)cn1` reads below 100 nM; that for `Cn1nc([C@@H]2CC3CC(O)(C[S+]([O-])CC(F)(F)F)C[C@H]3C2)c(C(=O)Nc2ccc(F)c(Cl)c2)c1N` (stereo not given in full), below 100 nM; that for `Cn1nc(C2CC3CC(C(=O)O)CC3C2)c(C(=O)Nc2ccc(F)c(Cl)c2)c1N` (stereo not given), below 100 nM.
The same measure, in the same setting: the result for `Cn1nc(C2CCC(c3cnc(C(F)(F)F)s3)C2)c(C(=O)Nc2ccc(F)c(Cl)c2)c1N` (stereo not given) reads “in the range around 5250 nM”; that for `Cn1nc(C2CC3CC(S(C)(=O)=O)CC3C2)c(C(=O)Nc2ccc(F)c(Cl)c2)c1N` (stereo not given), below 100 nM; that for `Cn1cc(C2CC3CC(c4nn(C)c(N)c4C(=O)Nc4ccc(F)c(Cl)c4)CC3C2)cn1` (stereo not given), below 100 nM.
Same read-out and setting: the result for `Cn1nc(C2CC3CC(C#N)CC3C2)c(C(=O)Nc2ccc(F)c(Cl)c2)c1N` (stereo not given) reads below 100 nM; that for `Cn1nc(C2CC3CC(O)(CSCCN4CCOCC4)CC3C2)c(C(=O)Nc2ccc(F)c(Cl)c2)c1N` (stereo not given), below 100 nM.
With `CC[S+]([O-])C1CC2CC(c3nn(C)c(N)c3C(=O)Nc3ccc(F)c(Cl)c3)CC2C1` (stereo not given), the concentration giving a half-maximal response (EC50) was below 100 nM.
Same read-out and setting: the result for `COc1cc(-c2c[nH]cn2)ccc1[C@H]1CC[C@@H](c2nn(C)c(N)c2C(=O)Nc2ccc(F)c(Cl)c2)C1` reads “in the range around 300 nM”.
Turning to `COc1cccc(C2CCC(c3nn(C)c(N)c3C(=O)Nc3ccc(F)c(Cl)c3)C2)c1` (stereo not given), the EC50 was below 100 nM.
Same read-out and setting: the result for `CN(C)C(=O)CC1(O)CC2CC(c3nn(C)c(N)c3C(=O)Nc3ccc(F)c(Cl)c3)CC2C1` (stereo not given) reads below 100 nM; that for `Cn1nc(C2CC3CC4(CNC(=O)C4)CC3C2)c(C(=O)Nc2ccc(F)c(Cl)c2)c1N` (stereo not given), below 100 nM.
On the same count and under the same terms, the result for `CC(=O)Nc1ccc(C2CCC(c3nn(C)c(N)c3C(=O)Nc3ccc(F)c(Cl)c3)C2)cc1` (stereo not given) reads below 100 nM; that for `CCC1OC[C@]2(CC3C[C@H](c4nn(C)c(N)c4C(=O)Nc4ccc(F)c(Cl)c4)C[C@@H]3C2)O1` (stereo not given in full), below 100 nM; that for `Cn1nc([C@@H]2CC3CNC(=O)C[C@@H]3C2)c(C(=O)Nc2ccc(F)c(Cl)c2)c1N` (stereo not given in full), “in the range around 300 nM”.
